Results: US20150018566A1, “TUBULIN BINDING AGENTS” (priority 2011, published 2015)

How the values were obtained:
[1] = target: T1, tubulin (Sus scrofa, UniProt P02550+P02554); test: Tubulin assembly assay (tubulin binding); assay type: biochemical, porcine; conditions: under the assay conditions used
T1 construct: The procedure used is modified from Shelanski et al; from tissue
Experimental: The buffer was prepared with deionised water and the pH of the solution was adjusted to 6.6 by the drop-wise addition of 10M aq. NaOH. The buffer was stored at 4° C. prior to use.
Equipment: A Fluostar Optima 96 well plate reader equipped with a thermostat capability.
The tubulin assembly was followed by observing an increase in optical density of a tubulin solution at 350 nm at 37° C. Typically 1 ml of tubulin solution was diluted with EB (5 ml) and GTP solution (25 μl, 5 μl per ml of EB added) to the mixture. The mixture was vortexed for ten seconds in order to ensure the homogeneity of the mixture. 100 μl of the resultant solution was pipetted into a well in the 96 well plate. The increase in optical density of the tubulin solution was measured over a time course of ten minutes at 350 nm and 37° C. […] Accordingly, adjustments were made to the quantity of buffer added in order to obtain a protein concentration within the desired range. […] Tubulin solution (1000 was subsequently pipetted into each of the same three wells. The plate was immediately incubated at 37° C. and was subjected to orbital shaking for five seconds. The UV absorption was measured at 350 nm over a time course of ten minutes. The maximum slope of the resulting curve was measured. The slope of the blank represents the maximum rate of tubulin polymerisation.

[2] = tested on: rat aortic ring cultures; test: Aortic ring assay (anti-vascular model); assay type: cell-based; conditions: 1 μM
Experimental: The aortic ring assay is an ideal assay for testing the activity of anti-vascular, anti-angiogenic or pro-angiongenic agents. This method was originally developed and modified by Nicosia. The aorta can be excised from mice or rats, cut into ˜1 mm rings and cultured in either basement membrane matrix (matrigel) or collagen gel. Following incubation for several days the rings start to generate outgrowths of branching microvessels which are lined by endothelial cells and supported by pericytes and fibroblasts. The angiogenic response of the aorta is a self-limited process regulated by endogenous growth factors including bFGF [13], VEGF [14], PDGF [15] and angiopoietins.
The rat aorta model is an ex vivo assay which combines advantages of both in vitro and in vivo models. The process of angiogenesis takes place in a defined culture environment which can be easily adapted to different experimental conditions according to the requirement of the study. The cells of the aortic outgrowth have not been modified by repeated passages in culture and thus newly formed microvessels reproduce the characteristics of the vasculature formed during angiogenesis in vivo [17-18]. There is no influx of leukocytes from circulating blood therefore inflammatory complications which affect the interpretation of in vivo assays are minimised. For the purpose of this study, rat aortic ring cultures were used to investigate firstly the anti-vascular and then the anti-angiogenic activity of test compounds.
The successful growth of the aortic rings into a mircovessel network was dependent on several factors including (i) the amount of periaortic fibroadipose tissue left on the ring, (ii) the orientation of the ring, the way which the ring was embedded into the matrigel and (iii) the volume of the matrigel used.
The aortic ring assay is an ex vivo assay which allows the analyst to examine the inhibition/stimulation of angiogenesis as well as the breakdown of existing vasculature. Basement membrane matrix (matrigel) was stored at −20° C. Prior to use, matrigel vial was placed on ice and kept at 4° C. overnight in order to thaw. The matrigel was kept on ice at all times for the duration of the experiment. Aortic rings were obtained by excising the thoracic aorta of 5-10 weeks old Wistar male rats and removing the fibroadipose tissue from the aortic wall. The rings were obtained by cross-sectioning the aorta at ˜1 mm intervals, removed any blood clots by washing several times with EBM-2. Matrigel (80 μl) was placed uniformly in each well of a 12-well plate and the aortic rings were then placed individually in between the matrigel layer with the lumen perpendicular to the surface of the plate. The matrigel solution was allowed to solidify for 30-40 minutes at 37° C. and 1 ml EBM-2 medium (supplemented with 2% FBS and […] streptomycin/penicillin solution) was added to each culture. The aortic rings were kept in a humidified CO2 incubator at 37° C. and fresh medium was replaced three times a week starting from day 3. Once an established microvessel network was developed (day 7-9), test compounds diluted in EBM-2 medium (1 ml) were added to each well and incubated at 37° C. for 24 h. The cultures were monitored for microvessel breakdown over time and images were taken 1 h, 4 h and 24 h after treatment using an Olympus CKX41 inverted microscope. Images were captured with an E-330 SLR camera system and processed using Cell̂ A software. Each compound concentration was tested in duplicate. Results were presented as images showing the microvessel breakdown at each time point.

[3] = tested on: rat aortic ring cultures; test: Aortic ring assay (anti-angiogenic effect); assay type: cell-based

T1 sequence (P02550 whole entry): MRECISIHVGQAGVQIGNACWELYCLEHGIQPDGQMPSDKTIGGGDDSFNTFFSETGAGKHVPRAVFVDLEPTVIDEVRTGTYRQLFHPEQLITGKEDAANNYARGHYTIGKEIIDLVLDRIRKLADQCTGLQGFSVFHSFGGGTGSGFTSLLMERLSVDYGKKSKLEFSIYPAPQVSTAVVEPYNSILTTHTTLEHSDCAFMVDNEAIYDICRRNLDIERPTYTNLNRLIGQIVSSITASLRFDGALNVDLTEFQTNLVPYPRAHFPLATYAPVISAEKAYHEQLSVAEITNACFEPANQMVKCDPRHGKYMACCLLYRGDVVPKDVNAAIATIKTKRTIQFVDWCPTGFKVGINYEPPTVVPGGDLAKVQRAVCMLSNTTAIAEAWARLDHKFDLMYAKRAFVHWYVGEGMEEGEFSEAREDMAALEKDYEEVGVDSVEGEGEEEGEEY
T1 sequence (P02554 whole entry): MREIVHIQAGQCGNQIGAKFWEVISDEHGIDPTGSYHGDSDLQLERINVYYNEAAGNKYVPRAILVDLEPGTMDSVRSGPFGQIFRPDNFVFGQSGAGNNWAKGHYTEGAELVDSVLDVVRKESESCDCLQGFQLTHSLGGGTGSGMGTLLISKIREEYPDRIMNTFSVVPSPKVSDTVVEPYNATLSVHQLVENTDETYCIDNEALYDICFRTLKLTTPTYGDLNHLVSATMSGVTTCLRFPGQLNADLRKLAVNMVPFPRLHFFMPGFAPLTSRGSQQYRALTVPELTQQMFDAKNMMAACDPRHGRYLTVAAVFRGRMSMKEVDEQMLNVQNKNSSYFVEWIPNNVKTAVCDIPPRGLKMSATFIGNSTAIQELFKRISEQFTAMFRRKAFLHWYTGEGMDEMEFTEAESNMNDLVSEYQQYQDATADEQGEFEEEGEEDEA

SMILES | tubulin binding activity (in words) [1] | anti-vascular effect on established microvessel network ([2]; 4 h of treatment) | anti-vascular effect on established microvessel network ([2]; 24 h incubation) | anti-angiogenic effect (microvessel area) ([3]; 0.1 μM) | anti-angiogenic effect (microvessel density) ([3]; 1 μM)
COc1ccc(C2=CC(=O)CCc3cc(OC)c(OC)c(OC)c32)cc1O [Compound 12, 9-(3-hydroxy-4-methoxyphenyl)-1,2,3-trimethoxy-6,7-dihydro-5H-benzo[a]cyclohepten-7-one] | inactive |  |  |  | 
COc1ccc(C2=C/C(=N/OCC(=O)NO)CCc3c2cc(OC)c(OC)c3OC)cc1N [Compound 30, 2-[9-(3-Amino-4-methoxy-phenyl)-2,3,4-trimethoxy-5,6-dihydro-benzocyclohepten-7-ylideneaminooxy]-N-hydroxy-acetamide] |  | satisfactory activity | clear microvessel disruption | negligible reduction | significantly (p<0.01) lower microvessel density
